Measured values: patent US10258557B2, “Peptide for stimulating melanogenesis” (priority 2017, dated 2019)
Where a SMILES comes first, the peptide text is derived from it.

Tested on: B16F10 cells
Test: MTT assay, cell viability
Format: cell-based, mouse
Settings: different concentrations, 24, 48 or 72 hours
Protocol: B16F10 is a melanoma cell line isolated from mouse skin (American Type Culture Collection, USA) and was cultured in phenol red-free Dulbecco's Modified Eagle Medium (DMEM) containing 10% (v/v) FBS and penicillin/streptomycin (100 IU/[…]) in 5% CO2 at 37° C.
The cells (2×10^3) in 100 μl complete DMEM were seeded in 96-well plates and treated with the peptide of SEQ ID NO: 1 at different concentrations. The cells treated with ddH2O was used as controls. Ten microliters of 5 mg/ml 3-(4,5-dimethyl-2-thiazolyl)-2,5-diphenyl-2H-tetrazolium bromide solution (MTT; Sigma) was added to each well and incubated at 37° C. for 3 hours. After that, 100 μl 10% SDS in 0.01N HCl was added to dissolve the MTT formazan crystals. The resultant optical density was measured by spectrophotometry at dual wavelengths, 550 and 630 nm.

## C[C@H](NC(=O)[C@H](CO)NC(=O)[C@@H](N)CC(N)=O)C(=O)N[C@H](C(=O)N[C@@H](CCC(=O)O)C(=O)N[C@@H](CCCNC(=N)N)C(=O)N[C@@H](CCC(=O)O)C(=O)O)[C@@H](C)O [peptide of SEQ ID NO: 1, AsnSerAlaThrGluArgGlu] (H-NSATERE-OH)
FIG. 3
  cell viability (MTT): did not significantly affect the viability
FIG. 3, listed as peptide having the amino acid sequence of SEQ ID NO: 1
  cell viability (MTT): did not significantly affect viability
